pIC50: −log10 of the molar value. One block for each molecule: values may come before it. Activity calls are given as the source filed them. No cut-off for these calls is given here.
Tests used:
[1] = Plasma concentration in HLA-B27 rat at 100 mg/kg, po bid administered for 11 days measured 12 hrs post last dose; format: ADME, organism-based; parameters: dose 100 mg/kg, route oral
[2] = system: Cavia porcellus; assay: Reduction on allergenic encephalomyelitis guinea pig EAE model at 300 mg/kg, po bid; format: functional, organism-based; parameters: dose 300 mg/kg
[3] = system: Liver microsomes; assay: Drug metabolism in human liver microsomes assessed as (S)-2-(2-(ethylamino)-5-(N-isopropylmethylsulfonamido)pyrimidin-4-ylamino)-3-(4-(pyrrolidine-1-carbonyloxy)phenyl)propanoic acid synthesis; format: ADME, Microsome
[4] = system: Liver microsomes; assay: Drug metabolism in rat liver microsomes assessed as (S)-2-(2-(ethylamino)-5-(N-isopropylmethylsulfonamido)pyrimidin-4-ylamino)-3-(4-(pyrrolidine-1-carbonyloxy)phenyl)propanoic acid synthesis; format: ADME, Microsome
[5] = Plasma concentration in rat at 1000 mg/kg, po administered for 10 days measured 24 hrs post last dose; format: ADME, organism-based; parameters: dose 1000 mg/kg, route oral
[6] = Plasma concentration in rat at 300 mg/kg, po administered for 10 days measured 24 hrs post last dose; format: ADME, organism-based; parameters: dose 300 mg/kg, route oral
[7] = Plasma concentration in rat at 100 mg/kg, po administered for 10 days measured 24 hrs post last dose; format: ADME, organism-based; parameters: dose 100 mg/kg, route oral
[8] = Plasma concentration in rat at 30 mg/kg, po administered for 10 days measured 24 hrs post last dose; format: ADME, organism-based; parameters: dose 30 mg/kg, route oral
[9] = system: Rattus norvegicus; assay: Toxicity in rat assessed as weight gain at 1 to 1000 mg/kg, po after 10 days; format: organism-based; parameters: dose 1-1000 mg/kg, route oral; settings: in vivo, 240 h
[10] = Plasma concentration in rat at 10 mg/kg, po administered for 10 days measured 24 hrs post last dose; format: ADME, organism-based; parameters: dose 10 mg/kg, route oral
[11] = Plasma concentration in rat at 1000 mg/kg, po after 24 hrs; format: ADME, organism-based; parameters: dose 1000 mg/kg, route oral
[12] = Plasma concentration in rat at 100 mg/kg, po after 24 hrs; format: ADME, organism-based; parameters: dose 100 mg/kg, route oral
[13] = Plasma concentration in rat at 300 mg/kg, po after 24 hrs; format: ADME, organism-based; parameters: dose 300 mg/kg, route oral
[14] = Plasma concentration in rat at 30 mg/kg, po after 24 hrs; format: ADME, organism-based; parameters: dose 30 mg/kg, route oral
[15] = Plasma concentration in rat at 10 mg/kg, po after 24 hrs; format: ADME, organism-based; parameters: dose 10 mg/kg, route oral
[16] = Plasma concentration in rat at 3 mg/kg, po after 24 hrs; format: ADME, organism-based; parameters: dose 3 mg/kg, route oral
[17] = AUC (0 to infinity) in rat at 1000 mg/kg, po; format: ADME, organism-based; parameters: time infinity, dose 1000 mg/kg, route oral; settings: plasma
[18] = AUC (0 to infinity) in rat at 300 mg/kg, po; format: ADME, organism-based; parameters: time infinity, dose 300 mg/kg, route oral; settings: plasma
[19] = AUC (0 to infinity) in rat at 30 mg/kg, po; format: ADME, organism-based; parameters: time infinity, dose 30 mg/kg, route oral; settings: plasma
[20] = AUC (0 to infinity) in rat at 100 mg/kg, po; format: ADME, organism-based; parameters: time infinity, dose 100 mg/kg, route oral; settings: plasma
[21] = AUC (0 to infinity) in rat at 10 mg/kg, po; format: ADME, organism-based; parameters: time infinity, dose 10 mg/kg, route oral; settings: plasma
[22] = AUC (0 to infinity) in rat at 3 mg/kg, po; format: ADME, organism-based; parameters: time infinity, dose 3 mg/kg, route oral; settings: plasma
[23] = Cmax in rat at 1000 mg/kg, po; format: ADME, organism-based; parameters: dose 1000 mg/kg, route oral; settings: in vivo
[24] = AUC (0 to infinity) in rat at 1 mg/kg, po; format: ADME, organism-based; parameters: time infinity, dose 1 mg/kg, route oral; settings: plasma
[25] = Cmax in rat at 300 mg/kg, po; format: ADME, organism-based; parameters: dose 300 mg/kg, route oral; settings: in vivo
[26] = Cmax in rat at 30 mg/kg, po; format: ADME, organism-based; parameters: dose 30 mg/kg, route oral; settings: in vivo
[27] = Cmax in rat at 100 mg/kg, po; format: ADME, organism-based; parameters: dose 100 mg/kg, route oral; settings: in vivo
[28] = Cmax in rat at 3 mg/kg, po; format: ADME, organism-based; parameters: dose 3 mg/kg, route oral; settings: in vivo
[29] = Cmax in rat at 10 mg/kg, po; format: ADME, organism-based; parameters: dose 10 mg/kg, route oral; settings: in vivo
[30] = Volume of distribution at steady state in iv dosed rat; format: ADME, organism-based; settings: in vivo, read-out: Vdss
[31] = Oral bioavailability in rat; format: ADME, organism-based; settings: in vivo
[32] = Cmax in rat at 1 mg/kg, po; format: ADME, organism-based; parameters: dose 1 mg/kg, route oral; settings: in vivo
[33] = Apparent volume of distribution in iv dosed rat; format: ADME, organism-based; settings: in vivo, read-out: Vz
[34] = Clearance in iv dosed rat; format: ADME, organism-based; settings: in vivo
[35] = Half life in iv dosed rat; format: ADME, organism-based; settings: in vivo
[36] = AUC (0 to infinity) in po dosed rat; format: ADME, organism-based; parameters: route oral, time infinity; settings: plasma
[37] = Cmax in po dosed rat; format: ADME, organism-based; parameters: route oral; settings: in vivo
[38] = Plasma concentration in rat at 1 mg/kg, po after 24 hrs; format: ADME, organism-based; parameters: dose 1 mg/kg, route oral
[39] = target: T1, Integrin alpha-4/beta-1 (Homo sapiens, UniProt P05556+P13612); assay: Inhibition of alpha4beta1 integrin-mediated human jurkat cell adhesion to fibronectin in absence of human serum albumin; format: protein-complex assay
[40] = target: T1, Integrin alpha-4/beta-1; assay: Inhibition of alpha4beta1 integrin-mediated human jurkat cell adhesion to fibronectin in presence of human serum albumin; format: protein-complex assay

T1 sequence (P05556 whole entry): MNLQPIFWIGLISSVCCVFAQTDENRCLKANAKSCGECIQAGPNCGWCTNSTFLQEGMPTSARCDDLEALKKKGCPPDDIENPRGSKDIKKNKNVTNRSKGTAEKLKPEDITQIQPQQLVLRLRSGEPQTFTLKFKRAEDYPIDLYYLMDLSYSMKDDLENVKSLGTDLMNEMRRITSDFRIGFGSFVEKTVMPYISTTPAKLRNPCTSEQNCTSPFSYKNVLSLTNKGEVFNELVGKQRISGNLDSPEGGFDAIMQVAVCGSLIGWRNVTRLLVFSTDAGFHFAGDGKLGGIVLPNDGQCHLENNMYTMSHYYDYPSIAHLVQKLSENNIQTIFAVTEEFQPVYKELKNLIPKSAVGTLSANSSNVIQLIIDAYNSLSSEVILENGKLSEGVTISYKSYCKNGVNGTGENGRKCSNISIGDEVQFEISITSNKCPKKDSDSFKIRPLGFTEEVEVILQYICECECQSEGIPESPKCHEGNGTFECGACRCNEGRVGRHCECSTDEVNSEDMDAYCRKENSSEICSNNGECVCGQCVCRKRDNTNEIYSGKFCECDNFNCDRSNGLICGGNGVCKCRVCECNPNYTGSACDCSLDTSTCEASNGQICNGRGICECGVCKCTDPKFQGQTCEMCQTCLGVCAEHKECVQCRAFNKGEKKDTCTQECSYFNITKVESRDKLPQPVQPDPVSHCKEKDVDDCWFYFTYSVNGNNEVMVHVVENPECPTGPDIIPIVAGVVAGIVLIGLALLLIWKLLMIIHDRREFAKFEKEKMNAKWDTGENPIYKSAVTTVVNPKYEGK
T1 sequence (P13612 whole entry): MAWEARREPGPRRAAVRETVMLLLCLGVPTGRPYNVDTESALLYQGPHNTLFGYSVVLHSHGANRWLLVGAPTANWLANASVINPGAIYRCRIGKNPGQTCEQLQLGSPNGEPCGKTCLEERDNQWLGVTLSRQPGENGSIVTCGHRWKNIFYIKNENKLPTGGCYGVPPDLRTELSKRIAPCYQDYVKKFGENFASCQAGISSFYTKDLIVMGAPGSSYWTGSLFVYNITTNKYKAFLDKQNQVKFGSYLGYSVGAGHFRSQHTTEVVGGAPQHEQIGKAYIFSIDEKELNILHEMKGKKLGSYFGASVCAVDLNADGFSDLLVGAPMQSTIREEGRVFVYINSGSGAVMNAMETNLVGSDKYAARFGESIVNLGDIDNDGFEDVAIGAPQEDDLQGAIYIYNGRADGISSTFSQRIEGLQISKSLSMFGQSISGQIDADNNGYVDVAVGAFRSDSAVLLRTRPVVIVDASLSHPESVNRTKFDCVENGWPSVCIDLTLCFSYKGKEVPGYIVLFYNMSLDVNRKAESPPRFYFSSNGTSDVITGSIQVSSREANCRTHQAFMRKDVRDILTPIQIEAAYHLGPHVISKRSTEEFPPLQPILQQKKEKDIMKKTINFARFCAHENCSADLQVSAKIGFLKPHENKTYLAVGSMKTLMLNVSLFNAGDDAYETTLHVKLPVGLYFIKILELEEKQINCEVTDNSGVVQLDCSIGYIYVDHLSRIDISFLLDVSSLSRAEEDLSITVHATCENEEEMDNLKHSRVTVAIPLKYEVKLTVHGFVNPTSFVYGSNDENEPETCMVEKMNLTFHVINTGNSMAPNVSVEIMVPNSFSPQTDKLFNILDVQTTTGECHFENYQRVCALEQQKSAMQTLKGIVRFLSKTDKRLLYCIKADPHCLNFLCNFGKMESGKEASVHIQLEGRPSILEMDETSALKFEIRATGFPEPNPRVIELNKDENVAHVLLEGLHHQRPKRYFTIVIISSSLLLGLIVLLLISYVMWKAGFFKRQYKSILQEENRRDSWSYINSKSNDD

concentration at 12 h [1]: 2.5 µg/mL | Drug metabolism [3]: Active | Drug metabolism [4]: Active | concentration at 24 h [5]: 100 µg/mL | concentration at 24 h [6]: 43.1 µg/mL | concentration at 24 h [7]: 28.5 µg/mL | concentration at 24 h [8]: 13 µg/mL | concentration at 24 h [10]: 3.38 µg/mL | concentration at 24 h [11]: 71.4 µg/mL | concentration at 24 h [12]: 13.7 µg/mL | concentration at 24 h [13]: 46.1 µg/mL | concentration at 24 h [14]: 4.25 µg/mL | concentration at 24 h [15]: 1.01 µg/mL | concentration at 24 h [16]: 0.358 µg/mL | AUC(0-inf) [17]: 4480 µg·h/mL | AUC(0-inf) [18]: 2980 µg·h/mL | AUC(0-inf) [19]: 275 µg·h/mL | AUC(0-inf) [20]: 1260 µg·h/mL | AUC(0-inf) [21]: 76 µg·h/mL | AUC(0-inf) [22]: 24.2 µg·h/mL | Cmax [23]: 214 µg/mL | AUC(0-inf) [24]: 5.9 µg·h/mL | Cmax [25]: 153 µg/mL | Cmax [26]: 17.4 µg/mL | Cmax [27]: 105 µg/mL | Cmax [28]: 1.1 µg/mL | Cmax [29]: 3.6 µg/mL | Vd [30]: 0.068 L/kg | bioavailability [31]: 17% | Cmax [32]: 0.23 µg/mL | Vd [33]: 0.108 L/kg | clearance [34]: 0.0103 L/h/kg | half-life [35]: 7.3 h | AUC(0-inf) [36]: 221 µg·h/mL | Cmax [37]: 16.5 µg/mL | concentration at 24 h [38]: 0.11 µg/mL
SMILES: CCN(CC)c1ncc(N(C(C)C)S(C)(=O)=O)c(N[C@@H](Cc2ccc(OC(=O)N3CCCC3)cc2)C(=O)O)n1
Activity [2]: inactive | Activity [9]: Non-toxic

AUC(0-inf) [36]: 6.8 µg·h/mL | Cmax [37]: 1.4 µg/mL | pIC50 [39]: 7.63 | pIC50 [40]: 5.32
SMILES: CCNc1ncc(N(C(C)C)S(C)(=O)=O)c(N[C@@H](Cc2ccc(OC(=O)N3CCCC3)cc2)C(=O)O)n1
